# Literature values, collected in patent US10220017B2, “Liquid pharmaceutical compositions comprising SGLT-2 inhibitors” (Boehringer Ingelheim Vetmedica GmbH, priority 2015, dated 2019).
# Conditions: n-octanol/water; values taken from http://www.chemicalize.org/
row,log10P,SMILES
1,−0.16,CCO [ethanol]
2,−1.84,"OCC(O)CO [propane-1,2,3-triol]"
3,−0.79,"CC(O)CO (stereo not drawn) [propane-1,2-diol]"
